Laboratory results taken from the supplement of paper PMC11061612.

Key:
[1] = test system: HEC-1 (Endometrial Carcinoma); experiment: Bliss excess, mean over the matrix (fraction); higher = more synergy
Procedure, shortened: (§1)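 After 24 hours at 37°C and 5% CO2 in 1536-well plates, cells in DMEM/F12 or RPMI plus 10% FBS received two-drug dose matrices for 72 hours. Viability came from CellTiter-Glo 2.0 luminescence and was scaled as inhibition, anchored at 0 by vehicle wells and at 1 by blank wells. Combination Emax is taken as the second-highest inhibition in the matrix, and Bliss excess as the observed combination effect less EA + EB − EA·EB, with EA and EB the single-agent effects.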

[2] = test system: OVMIU (Ovarian Carcinoma); experiment: as above
Procedure, shortened: as §1

[3] = test system: VAL (B-Cell Non-Hodgkin's Lymphoma); experiment: as above
Procedure, shortened: as §1

[4] = test system: LN-229 (Glioblastoma); experiment: combination Emax (second highest fraction inhibited in the dose matrix, 72 h); higher = more inhibition; extreme values may be limits of the assay
Procedure, shortened: as §1

[5] = test system: CAL-62 (Thyroid Gland Carcinoma); experiment: as above
Procedure, shortened: as §1

[6] = test system: LXF-289 (Lung Adenocarcinoma); experiment: as above
Procedure, shortened: as §1

[7] = test system: TE-8 (Esophageal Squamous Cell Carcinoma); experiment: as above
Procedure, shortened: as §1

[8] = test system: OPM-2 (Plasma Cell Myeloma); experiment: as above
Procedure, shortened: as §1

[9] = test system: PANC-03-27 (Pancreatic Carcinoma); experiment: as above
Procedure, shortened: as §1

[10] = test system: RKN (Other Solid Carcinomas); experiment: as above
Procedure, shortened: as §1

[11] = test system: A2058 (Melanoma); experiment: as above
Procedure, shortened: as §1

[12] = test system: SHP-77 (Small Cell Lung Carcinoma); experiment: as above
Procedure, shortened: as §1

[13] = test system: LB996-RCC (Kidney Carcinoma); experiment: as above
Procedure, shortened: as §1

[14] = test system: OVMIU (Ovarian Carcinoma); experiment: as above
Procedure, shortened: as §1

[15] = test system: GB-1 (Glioblastoma); experiment: as above
Procedure, shortened: as §1

[16] = test system: NCI-H446 (Small Cell Lung Carcinoma); experiment: as above
Procedure, shortened: as §1

[17] = test system: SU-DHL-10 (B-Cell Non-Hodgkin's Lymphoma); experiment: as above
Procedure, shortened: as §1

[18] = test system: SK-PN-DW (Other Solid Carcinomas); experiment: as above
Procedure, shortened: as §1

[19] = test system: WM278 (Melanoma); experiment: as above
Procedure, shortened: as §1
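Wherever Bliss excess, mean over the matrix is given: after 72 h of two-drug dosing.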

Compound | Bliss excess [1] | Bliss excess [2] | Bliss excess [3] | combination Emax [4] | combination Emax [5] | combination Emax [6] | combination Emax [7] | combination Emax [8] | combination Emax [9] | combination Emax [10] | combination Emax [11] | combination Emax [12] | combination Emax [13] | combination Emax [14] | combination Emax [15] | combination Emax [16] | combination Emax [17] | combination Emax [18] | combination Emax [19]
CN(C)CCCOc1ccc(-c2ccc3ncc4c(c3c2)n(C2CCOCC2)c(=O)n4C)cn1 [AZD0156] + C[C@@H]1COCCN1C2=NC(=NC(=C2)C3(CC3)[S@](=N)(=O)C)C4=C5C=CNC5=NC=C4 [AZD6738] (first compound max 1 µM, 7x7, partner max 10 µM) | -0.004 | -0.0072 | -0.0049 | 0.54 | 0.755 | 0.573 | 0.817 | 0.776 | 0.862 | 0.206 | 0.225 | 0.665 | 0.581 | 0.396 | 0.392 | 0.779 | 0.979 | 0.928 | 0.341
COc1cccc(OCCCN)c1-c1cc(Nc2cnc(C#N)cn2)n[nH]1 [Prexasertib] + O=C(c1cc(Cc2n[nH]c(=O)c3ccccc23)ccc1F)N1CCN(C(=O)C2CC2)CC1 [Olaparib] (first compound max 1 µM, 7x7, partner max 10 µM) | -0.0535 | -0.0938 | -0.0518 | 0.551 | 0.779 | 0.783 | 0.902 | 0.943 | 0.918 | 0.678 | 0.508 | 0.819 | 0.759 | 0.592 | 0.439 | 0.963 | 1 | 0.937 | 0.627
Cc1cc2ncnn2cc1Nc1ncc2c(n1)n(C1CCOCC1)c(=O)n2C [AZD7648] + CN(C)CCCOc1ccc(-c2ccc3ncc4c(c3c2)n(C2CCOCC2)c(=O)n4C)cn1 [AZD0156] (first compound max 10 µM, 7x7, partner max 1 µM) | -0.0239 | -0.0068 | -0.0921 | 0.146 | 0.321 | 0.201 | 0.325 | 0.556 | 0.318 | 0.194 | 0.182 | 0.223 | 0.339 | 0.474 | 0.19 | 0.309 | 0.302 | 0.303 | 0.188
COc1cc2c(cc1OCCCCCOc1cc3c(cc1OC)C(=O)N1C=C(C)C[C@H]1C=N3)N=C[C@@H]1CC(C)=CN1C2=O [SG3199] + O=C(c1cc(Cc2n[nH]c(=O)c3ccccc23)ccc1F)N1CCN(C(=O)C2CC2)CC1 [Olaparib] (first compound max 0.001 µM, 7x7, partner max 10 µM) | 0.0483 | -0.0898 | -0.0069 | 0.0777 | 0.102 | 0.119 | 0.109 | 0.0651 | 0.0754 | 0.0618 | 0.141 | 0.223 | 0.282 | 0.0896 | 0.141 | 0.285 | 0.23 | 0.393 | 0.0771
COc1cccc(OCCCN)c1-c1cc(Nc2cnc(C#N)cn2)n[nH]1 [Prexasertib] + CN(C)CCCOc1ccc(-c2ccc3ncc4c(c3c2)n(C2CCOCC2)c(=O)n4C)cn1 [AZD0156] (first compound max 1 µM, 7x7, partner max 1 µM) | -0.0146 | -0.0012 | -0.0162 | 0.725 | 0.735 | 0.772 | 0.914 | 0.936 | 0.902 | 0.67 | 0.391 | 0.829 | 0.712 | 0.684 | 0.485 | 0.982 | 0.999 | 0.948 | 0.574
Cc1cc2ncnn2cc1Nc1ncc2c(n1)n(C1CCOCC1)c(=O)n2C [AZD7648] + C=CCn1c(=O)c2cnc(Nc3ccc(N4CCN(C)CC4)cc3)nc2n1-c1cccc(C(C)(C)O)n1 [AZD1775] (first compound max 10 µM, partner max 1 µM) | -0.0318 | 0.0747 | -0.0919 | 0.35 | 0.69 | 0.476 | 0.814 | 0.864 | 0.878 | 0.248 | 0.24 | 0.432 | 0.762 | 0.635 | 0.439 | 0.839 | 0.978 | 0.875 | 0.254
CCN(CCO)CCCOc1ccc2c(Nc3cc(CC(=O)Nc4cccc(F)c4)[nH]n3)ncnc2c1 [AZD2811] + O=C(c1cc(Cc2n[nH]c(=O)c3ccccc23)ccc1F)N1CCN(C(=O)C2CC2)CC1 [Olaparib] (first compound max 1 µM, 7x7, partner max 10 µM) | -0.0059 | -0.0509 | -0.0246 | 0.167 | 0.277 | 0.555 | 0.335 | 0.363 | 0.379 | 0.228 | 0.218 | 0.185 | 0.315 | 0.295 | 0.194 | 0.81 | 0.745 | 0.689 | 0.166
CN(C)CCCOc1ccc(-c2ccc3ncc4c(c3c2)n(C2CCOCC2)c(=O)n4C)cn1 [AZD0156] + C=CCn1c(=O)c2cnc(Nc3ccc(N4CCN(C)CC4)cc3)nc2n1-c1cccc(C(C)(C)O)n1 [AZD1775] (first compound max 1 µM, partner max 1 µM) | -0.0257 | -0.0113 | -0.0082 | 0.314 | 0.709 | 0.264 | 0.783 | 0.805 | 0.91 | 0.263 | 0.121 | 0.419 | 0.801 | 0.519 | 0.263 | 0.801 | 0.936 | 0.871 | 0.228
Cc1cc2ncnn2cc1Nc1ncc2c(n1)n(C1CCOCC1)c(=O)n2C [AZD7648] + O=C(c1cc(Cc2n[nH]c(=O)c3ccccc23)ccc1F)N1CCN(C(=O)C2CC2)CC1 [Olaparib] (first compound max 10 µM, 7x7, partner max 10 µM) | 0.0079 | -0.0945 | 0.0295 | 0.0989 | 0.377 | 0.177 | 0.184 | 0.294 | 0.185 | 0.189 | 0.0679 | 0.233 | 0.423 | 0.306 | 0.23 | 0.273 | 0.16 | 0.395 | 0.0954
C[C@@H]1COCCN1c1cc(C2([S@](C)(=N)=O)CC2)nc(-c2ccnc3[nH]ccc23)n1 [AZD6738] + O=C(c1cc(Cc2n[nH]c(=O)c3ccccc23)ccc1F)N1CCN(C(=O)C2CC2)CC1 [Olaparib] (first compound max 10 µM, 7x7, partner max 10 µM) | -0.0041 | -0.0083 | -0.0708 | 0.539 | 0.899 | 0.516 | 0.757 | 0.75 | 0.829 | 0.228 | 0.205 | 0.754 | 0.675 | 0.429 | 0.478 | 0.811 | 0.944 | 0.947 | 0.233
Cc1cc2ncnn2cc1Nc1ncc2c(n1)n(C1CCOCC1)c(=O)n2C [AZD7648] + C[C@@H]1COCCN1C2=NC(=NC(=C2)C3(CC3)[S@](=N)(=O)C)C4=C5C=CNC5=NC=C4 [AZD6738] (first compound max 10 µM, 7x7, partner max 10 µM) | -0.0339 | 0.0527 | -0.0813 | 0.525 | 0.724 | 0.369 | 0.75 | 0.822 | 0.824 | 0.225 | 0.271 | 0.493 | 0.668 | 0.528 | 0.544 | 0.786 | 0.878 | 0.943 | 0.33
COc1cccc(OCCCN)c1-c1cc(Nc2cnc(C#N)cn2)n[nH]1 [Prexasertib] + C=CCn1c(=O)c2cnc(Nc3ccc(N4CCN(C)CC4)cc3)nc2n1-c1cccc(C(C)(C)O)n1 [AZD1775] (first compound max 1 µM, partner max 1 µM) | 0.109 | 0.0574 | 0.0026 | 0.738 | 0.86 | 0.834 | 0.966 | 0.967 | 0.925 | 0.833 | 0.519 | 0.949 | 0.877 | 0.814 | 0.651 | 0.995 | 1 | 0.968 | 0.605
COc1cccc(OCCCN)c1-c1cc(Nc2cnc(C#N)cn2)n[nH]1 [Prexasertib] + C[C@@H]1COCCN1C2=NC(=NC(=C2)C3(CC3)[S@](=N)(=O)C)C4=C5C=CNC5=NC=C4 [AZD6738] (first compound max 1 µM, 7x7, partner max 10 µM) | -0.0434 | 0.0388 | -0.0637 | 0.791 | 0.785 | 0.762 | 0.933 | 0.909 | 0.902 | 0.577 | 0.436 | 0.836 | 0.786 | 0.596 | 0.691 | 0.975 | 1 | 0.937 | 0.569
CCc1c2c(nc3ccc(O)cc13)-c1cc3c(c(=O)n1C2)COC(=O)[C@]3(O)CC [SN-38] + O=C(c1cc(Cc2n[nH]c(=O)c3ccccc23)ccc1F)N1CCN(C(=O)C2CC2)CC1 [Olaparib] (first compound max 0.3 µM, 7x7, partner max 10 µM) | 0.0181 | 0.0409 | 0.036 | – | 0.911 | – | 0.575 | 0.734 | 0.839 | 0.651 | 0.22 | 0.567 | 0.854 | 0.479 | 0.781 | 0.905 | – | 0.909 | 0.627
